Endothelial cell growth data for 1 substance are collected here from patent US20090062899A1, “COMPOSITE STENT WITH POLYMERIC COVERING AND BIOACTIVE COATING” (NFOCUS NEUROMEDICAL, INC., priority 2001, published 2009).

This assay relates to endothelial cells. Briefly: cell growth on surfaces carrying the bioactive (P15) coating. It is filed as cell-based. The conditions noted are these: polymer sleeve covered with the peptide. An excerpt: Chemical/biological testing such as MA (amino acid analysis), in vitro cell cultures followed by SEM (scanning electron microscopy), and in vivo testing can be used for evaluating the coatings of the present invention.

With “H-Gly-Thr-Pro-Gly-Pro-Gln-Gly-Ile-Ala-Gly-Gln-Arg-Gly-Val-Val-OH (H-GTPGPQGIAGQRGVV-OH; also: covalently bound coating on PTFE) [P15]”, the endothelial cell growth result is listed as “stimulated”.
